# Test system: New Zealand rabbits with normal intraocular pressure
# Experiment: Reduction of intraocular pressure by repeated eye-drop administration for 14 days, experiment operation 1
# Format: in vivo
# Conditions: for Change of intraocular pressure: negative control minus group
# Description: Experimental example 4. Experiment on reduction of intraocular pressure and ocular toxicity of New Zealand rabbits with normal intraocular pressure by repeated eye-drop administration for 14 days
# The intraocular pressure reduction action and the potential ocular toxicity of compound 63 were explored by 14 days of repeated eye-drop administration in rabbits with normal intraocular pressure.
# Male New Zealand rabbits, aged 97-127 days, weighted 2.6-3.5 kg, purchased from PizhouDongfang Breeding Co. Ltd.
# The male New Zealand rabbits were randomly divided into 7 groups, with 6 rabbits per group. Animals were randomly divided according to body weight Animals in 1-7 groups were eye-dropped with solvent/control sample/test sample in both eyes, the volume of the administration was all 50 μL/eye, once per day for 14 consecutive days, and the day of the administration was recorded as Day 1. On Day 1, intraocular pressure of the animals was measured before the administration and in 1, 2, 4, 6, 8 and 10 hours after the administration, respectively; on Days 2-14, intraocular pressure of the animals was measured in 1 hour after daily administration for the group administered with K-115, and intraocular pressure of the animal was measured in 4 hours after daily administration for the other groups.
# [1] = 0.5 mg/mL once per day, Day 2, 4 hours after daily administration
# [2] = 0.5 mg/mL once per day, Day 3, 4 hours after daily administration
# [3] = 0.5 mg/mL once per day, Day 4, 4 hours after daily administration
# [4] = 0.5 mg/mL once per day, Day 5, 4 hours after daily administration
# [5] = 0.5 mg/mL once per day, Day 6, 4 hours after daily administration
# [6] = 0.5 mg/mL once per day, Day 7, 4 hours after daily administration
# [7] = 1.0 mg/mL once per day, Day 2, 4 hours after daily administration
# [8] = 1.0 mg/mL once per day, Day 3, 4 hours after daily administration
# [9] = 1.0 mg/mL once per day, Day 4, 4 hours after daily administration
# [10] = 1.0 mg/mL once per day, Day 5, 4 hours after daily administration
# [11] = 1.0 mg/mL once per day, Day 6, 4 hours after daily administration
# [12] = 1.0 mg/mL once per day, Day 7, 4 hours after daily administration
# [13] = 2.0 mg/mL once per day, Day 2, 4 hours after daily administration
# [14] = 2.0 mg/mL once per day, Day 3, 4 hours after daily administration
# [15] = 2.0 mg/mL once per day, Day 4, 4 hours after daily administration
# [16] = 2.0 mg/mL once per day, Day 5, 4 hours after daily administration
# [17] = 2.0 mg/mL once per day, Day 6, 4 hours after daily administration
smiles,measurement,setting,value
Cc1ccc(C(=O)OCn2cc(C)c3c(S(=O)(=O)N4CC[C@H](N)C4)cccc3c2=O)c(C)c1 [Compound 63],Mean intraocular pressure of both eyes,"0.5 mg/mL both eyes, Day 1, 1 hour after administration",8.83 mmHg
same,Mean intraocular pressure of both eyes,"0.5 mg/mL both eyes, Day 1, 2 hours after administration",7.56 mmHg
same,Mean intraocular pressure of both eyes,"0.5 mg/mL both eyes, Day 1, 4 hours after administration",7.11 mmHg
same,Mean intraocular pressure of both eyes,"0.5 mg/mL both eyes, Day 1, 6 hours after administration",9.61 mmHg
same,Mean intraocular pressure of both eyes,"0.5 mg/mL both eyes, Day 1, 8 hours after administration",9.06 mmHg
same,Mean intraocular pressure of both eyes,"0.5 mg/mL both eyes, Day 1, 10 hours after administration",9.97 mmHg
same,Mean intraocular pressure of both eyes,"0.5 mg/mL both eyes, Day 1, before administration",10.11 mmHg
same,Mean intraocular pressure of both eyes,[1],7.94 mmHg
same,Change of intraocular pressure,[1],3.14 mmHg
same,Mean intraocular pressure of both eyes,[2],7.31 mmHg
same,Change of intraocular pressure,[2],3.08 mmHg
same,Mean intraocular pressure of both eyes,[3],7.78 mmHg
same,Change of intraocular pressure,[3],2.83 mmHg
same,Mean intraocular pressure of both eyes,[4],7.19 mmHg
same,Change of intraocular pressure,[4],3.78 mmHg
same,Mean intraocular pressure of both eyes,[5],6.61 mmHg
same,Change of intraocular pressure,[5],2.7 mmHg
same,Mean intraocular pressure of both eyes,[6],6.00 mmHg
same,Change of intraocular pressure,[6],4.06 mmHg
same,Change of intraocular pressure,"0.5 mg/mL once per day, Day 8, 4 hours after daily administration",4.2 mmHg
same,Change of intraocular pressure,"0.5 mg/mL once per day, Day 9, 4 hours after daily administration",3.25 mmHg
same,Change of intraocular pressure,"0.5 mg/mL once per day, Day 10, 4 hours after daily administration",3 mmHg
same,Change of intraocular pressure,"0.5 mg/mL once per day, Day 11, 4 hours after daily administration",3.25 mmHg
same,Change of intraocular pressure,"0.5 mg/mL once per day, Day 12, 4 hours after daily administration",3.28 mmHg
same,Change of intraocular pressure,"0.5 mg/mL once per day, Day 13, 4 hours after daily administration",3.31 mmHg
same,Change of intraocular pressure,"0.5 mg/mL once per day, Day 14, 4 hours after daily administration",3.72 mmHg
same,Change of intraocular pressure,"0.5 mg/mL, Day 1, 1 hour after administration",1.48 mmHg
same,Change of intraocular pressure,"0.5 mg/mL, Day 1, 2 hours after administration",3.41 mmHg
same,Change of intraocular pressure,"0.5 mg/mL, Day 1, 4 hours after administration",4.2 mmHg
same,Change of intraocular pressure,"0.5 mg/mL, Day 1, 6 hours after administration",2.33 mmHg
same,Change of intraocular pressure,"0.5 mg/mL, Day 1, 8 hours after administration",3.91 mmHg
same,Change of intraocular pressure,"0.5 mg/mL, Day 1, 10 hours after administration",4.45 mmHg
same,Change of intraocular pressure,"0.5 mg/mL, Day 1, before administration",−0.22 mmHg
same,Mean intraocular pressure of both eyes,"1.0 mg/mL both eyes, Day 1, 1 hour after administration",7.08 mmHg
same,Mean intraocular pressure of both eyes,"1.0 mg/mL both eyes, Day 1, 2 hours after administration",6.67 mmHg
same,Mean intraocular pressure of both eyes,"1.0 mg/mL both eyes, Day 1, 4 hours after administration",6.44 mmHg
same,Mean intraocular pressure of both eyes,"1.0 mg/mL both eyes, Day 1, 6 hours after administration",8.00 mmHg
same,Mean intraocular pressure of both eyes,"1.0 mg/mL both eyes, Day 1, 8 hours after administration",9.22 mmHg
same,Mean intraocular pressure of both eyes,"1.0 mg/mL both eyes, Day 1, 10 hours after administration",10.56 mmHg
same,Mean intraocular pressure of both eyes,"1.0 mg/mL both eyes, Day 1, before administration",9.94 mmHg
same,Mean intraocular pressure of both eyes,[7],7.64 mmHg
same,Change of intraocular pressure,[7],3.44 mmHg
same,Mean intraocular pressure of both eyes,[8],7.50 mmHg
same,Change of intraocular pressure,[8],2.89 mmHg
same,Mean intraocular pressure of both eyes,[9],7.33 mmHg
same,Change of intraocular pressure,[9],3.28 mmHg
same,Mean intraocular pressure of both eyes,[10],7.44 mmHg
same,Change of intraocular pressure,[10],3.53 mmHg
same,Mean intraocular pressure of both eyes,[11],6.92 mmHg
same,Change of intraocular pressure,[11],2.39 mmHg
same,Mean intraocular pressure of both eyes,[12],7.00 mmHg
same,Change of intraocular pressure,[12],3.06 mmHg
same,Change of intraocular pressure,"1.0 mg/mL once per day, Day 8, 4 hours after daily administration",4.03 mmHg
same,Change of intraocular pressure,"1.0 mg/mL once per day, Day 9, 4 hours after daily administration",2.5 mmHg
same,Change of intraocular pressure,"1.0 mg/mL once per day, Day 10, 4 hours after daily administration",2.44 mmHg
same,Change of intraocular pressure,"1.0 mg/mL once per day, Day 11, 4 hours after daily administration",2.19 mmHg
same,Change of intraocular pressure,"1.0 mg/mL once per day, Day 12, 4 hours after daily administration",2.64 mmHg
same,Change of intraocular pressure,"1.0 mg/mL once per day, Day 13, 4 hours after daily administration",3.33 mmHg
same,Change of intraocular pressure,"1.0 mg/mL once per day, Day 14, 4 hours after daily administration",3.53 mmHg
same,Change of intraocular pressure,"1.0 mg/mL, Day 1, 1 hour after administration",3.23 mmHg
same,Change of intraocular pressure,"1.0 mg/mL, Day 1, 2 hours after administration",4.3 mmHg
same,Change of intraocular pressure,"1.0 mg/mL, Day 1, 4 hours after administration",4.87 mmHg
same,Change of intraocular pressure,"1.0 mg/mL, Day 1, 6 hours after administration",3.94 mmHg
same,Change of intraocular pressure,"1.0 mg/mL, Day 1, 8 hours after administration",3.75 mmHg
same,Change of intraocular pressure,"1.0 mg/mL, Day 1, 10 hours after administration",3.86 mmHg
same,Change of intraocular pressure,"1.0 mg/mL, Day 1, before administration",−0.05 mmHg
same,Mean intraocular pressure of both eyes,"2.0 mg/mL both eyes, Day 1, 1 hour after administration",8.56 mmHg
same,Mean intraocular pressure of both eyes,"2.0 mg/mL both eyes, Day 1, 2 hours after administration",7.47 mmHg
same,Mean intraocular pressure of both eyes,"2.0 mg/mL both eyes, Day 1, 4 hours after administration",7.47 mmHg
same,Mean intraocular pressure of both eyes,"2.0 mg/mL both eyes, Day 1, 6 hours after administration",7.25 mmHg
same,Mean intraocular pressure of both eyes,"2.0 mg/mL both eyes, Day 1, 8 hours after administration",8.44 mmHg
same,Mean intraocular pressure of both eyes,"2.0 mg/mL both eyes, Day 1, 10 hours after administration",9.67 mmHg
same,Mean intraocular pressure of both eyes,"2.0 mg/mL both eyes, Day 1, before administration",9.67 mmHg
same,Mean intraocular pressure of both eyes,[13],7.03 mmHg
same,Change of intraocular pressure,[13],4.05 mmHg
same,Mean intraocular pressure of both eyes,[14],7.25 mmHg
same,Change of intraocular pressure,[14],3.14 mmHg
same,Mean intraocular pressure of both eyes,[15],6.86 mmHg
same,Change of intraocular pressure,[15],3.75 mmHg
same,Mean intraocular pressure of both eyes,[16],6.47 mmHg
same,Change of intraocular pressure,[16],4.5 mmHg
same,Mean intraocular pressure of both eyes,[17],5.92 mmHg
same,Change of intraocular pressure,[17],3.39 mmHg
